# From US20230381321A1, “CAMPTOTHECIN CONJUGATES” (priority 2022, published 2023)
# pIC50: −log10 of the molar value. Where two headings read alike, the source gives them in different places.
# How the values were obtained:
# Type in all cases: cell-based
# [1] = tested on: renal carcinoma cells (786-O); assay: In vitro potency (CellTiter-Glo, 96 h) on 786-O; details: Homo sapiens, 786-0, 96 h, read-out: 786-O IC50
# Method in brief: (§1)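 Luminescent viability signal reports growth inhibition after continuous exposure of cells to serially diluted […]. Cells, grown in RPMI 1640 plus 20% FBS, had been plated in log phase one day before dosing.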
# [2] = tested on: melanoma cells (A2058); assay: In vitro potency (CellTiter-Glo, 96 h) on A2058; details: Homo sapiens, A2058, 96 h, read-out: A2058 IC50
# Method in brief: as §1
# [3] = tested on: pancreatic cancer cells (BxPC3); assay: In vitro potency (CellTiter-Glo, 96 h) on BxPC3; details: Homo sapiens, BXPC-3, 96 h, read-out: BxPC3 IC50
# Method in brief: as §1
# [4] = tested on: non-small-cell lung cancer cells (Calu1); assay: In vitro potency (CellTiter-Glo, 96 h) on Calu1; details: Homo sapiens, Calu-1, 96 h, read-out: Calu1 IC50
# Method in brief: as §1
# [5] = tested on: anaplastic large cell lymphoma cells (DEL); assay: In vitro potency (CellTiter-Glo, 96 h) on DEL; details: 96 h, read-out: DEL IC50
# Method in brief: as §1
# [6] = tested on: anaplastic large cell lymphoma cells (DELBVR); assay: In vitro potency (CellTiter-Glo, 96 h) on DELBVR; details: 96 h, read-out: DELBVR IC50
# Method in brief: as §1
# [7] = tested on: anaplastic large cell lymphoma cells (Karpas299); assay: In vitro potency (CellTiter-Glo, 96 h) on Karpas299; details: Homo sapiens, KARPAS-299, 96 h, read-out: Karpas299 IC50
# Method in brief: as §1
# [8] = tested on: Hodgkin's lymphoma cells (L540cy); assay: In vitro potency (CellTiter-Glo, 96 h) on L540cy; details: L540cy, 96 h, read-out: L540cy IC50
# Method in brief: as §1
# [9] = In vitro potency (CellTiter-Glo, 96 h) on Ls174T; details: Homo sapiens, LS174T, read-out: Ls174T IC50
# Method in brief: as §1
# [10] = tested on: breast cancer cells (MDA-MB-231); assay: In vitro potency (CellTiter-Glo, 96 h) on MDA-MB-231; details: read-out: MDAMB 231 IC50
# Method in brief: as §1
# [11] = tested on: acute myeloid leukemia cells (MOLM-13); assay: In vitro potency (CellTiter-Glo, 96 h) on MOLM-13; details: read-out: MOLM-13 IC50
# Method in brief: as §1
# [12] = tested on: B-lymphocyte cancer cells (SU-DHL4); assay: In vitro potency (CellTiter-Glo, 96 h) on SU-DHL4; details: Homo sapiens, SU-DHL-4, 96 h, read-out: SU-DHL-4 IC50
# Method in brief: as §1
# [13] = CPT free drugs, CellTiter-Glo after 96 h exposure
# [14] = Homo sapiens, MDA-MB-231, 96 h, CPT free drugs, CellTiter-Glo after 96 h exposure
# [15] = Homo sapiens, MOLM-13, 96 h, CPT free drugs, CellTiter-Glo after 96 h exposure
SMILES,"pIC50 [1, 13]","pIC50 [2, 13]","pIC50 [3, 13]","pIC50 [4, 13]","pIC50 [5, 13]","pIC50 [6, 13]","pIC50 [7, 13]","pIC50 [8, 13]","pIC50 [9, 13]","pIC50 [10, 14]","pIC50 [11, 15]","pIC50 [12, 13]",further results
CC[C@@]1(O)C(=O)OCc2c1cc1n(c2=O)Cc2c-1nc1cc(F)c(C)c(C3=CCN(C(C)=O)CC3)c1c2CN [Compound 6k],7.10,7.77,7.02,6.77,8.15,7.96,7.40,7.80,7.34,6.43,7.89,7.68,–
CC[C@@]1(O)C(=O)OCc2c1cc1n(c2=O)Cc2c-1nc1cc(F)c(C)c(C3=CCN(C)CC3)c1c2CN [Compound 6l],7.42,7.80,7.29,7.14,8.22,7.82,7.60,7.70,7.54,6.75,7.80,7.74,–
CC[C@@]1(O)C(=O)OCc2c1cc1n(c2=O)Cc2c-1nc1cc3c(cc1c2Cn1ccnc1)OCO3 [Compound 7ai],7.92,8.52,7.77,7.09,9.00,8.52,8.22,8.40,8.10,7.28,8.05,8.52,–
CC[C@@]1(O)C(=O)OCc2c1cc1n(c2=O)Cc2c-1nc1cc3c(cc1c2Cn1cnc(CO)c1)OCO3 [Compound 7aj],–,–,–,–,–,–,–,–,–,–,–,–,"pIC50 [1]: 7.00; pIC50 [2]: 7.24; pIC50 [3]: 6.99; pIC50 [4]: < 6.00; pIC50 [5]: 7.85; pIC50 [6]: 7.80; pIC50 [7]: 7.26; pIC50 [8]: 7.25; pIC50 ([9]; 96 h): 7.19; pIC50 ([10]; Homo sapiens, MDA-MB-231, 96 h): 6.15; pIC50 ([11]; Homo sapiens, MOLM-13, 96 h): 7.09; pIC50 [12]: 7.47"
"CCc1c(C)c(F)cc2nc3c(c(CN)c12)Cn1c-3cc2c(c1=O)COC(=O)[C@]2(O)CC [Compound 10, (S)-11-(aminomethyl)-4,10-diethyl-8-fluoro-4-hydroxy-9-methyl-1,12-dihydro-14H-pyrano[3′,4′:6,7]indolizino[1,2-b]quinoline-3,14(4H)-dione]",–,–,–,–,–,–,–,–,–,–,–,–,"pIC50 [1]: 7.27; pIC50 [2]: 7.48; pIC50 [3]: 7.19; pIC50 [4]: 7.02; pIC50 [5]: 8.15; pIC50 [6]: 7.82; pIC50 [7]: 7.24; pIC50 [8]: 7.29; pIC50 ([9]; 96 h): 7.48; pIC50 ([10]; Homo sapiens, MDA-MB-231, 96 h): 7.23; pIC50 ([11]; Homo sapiens, MOLM-13, 96 h): 6.83; pIC50 [12]: 7.82"
"CC[C@@]1(O)C(=O)OCc2c1cc1n(c2=O)Cc2c-1nc1cc3c(cc1c2CN)C(C)CO3 (stereo partly drawn) [Compound 11, (5S)-14-(aminomethyl)-5-ethyl-5-hydroxy-18-methyl-7,20-dioxa-11,24 diazahexacyclo[11.11.0.02,11.04,9.015,23.017,21]tetracosa-1(24),2,4(9),13,15(23),16,21-heptaene-6,10-dione]",8.10,8.52,7.92,7.16,9.00,8.70,7.85,8.40,< 6.00,–,–,8.40,"pIC50 [10, 13]: 7.39; pIC50 [11, 13]: 6.97"
"C=Cc1ccc2nc3c(c(CN)c2c1)Cn1c-3cc2c(c1=O)COC(=O)[C@]2(O)CC [Compound 33, (19S)-10-(aminomethyl)-19-ethyl-19-hydroxy-7-vinyl-17-oxa-3,13-diazapentacyclo[11.8.0.02,11.04,9.015,20]henicosa-1(21),2,4,6,8,10,15(20)-heptaene-14,18-dione]",8.00,8.22,7.96,7.44,8.70,8.70,8.10,8.40,7.85,7.74,7.07,8.40,–
C=C(C)c1ccc2nc3c(c(CN)c2c1)Cn1c-3cc2c(c1=O)COC(=O)[C@]2(O)CC [Compound 33a],7.47,7.74,7.30,6.92,8.15,7.92,7.55,7.68,7.74,7.44,6.59,7.85,–
